Converted amounts (≈) assume the structure as drawn. Like-named read-outs stand apart in the source and are kept apart here. One block for each molecule: values may come before it.
Assays:
Heliothis virescens [1] = assay: Artificial diet feeding bioassay, mortality and growth inhibition in first-instar larvae; type: in vivo, Heliothis virescens (tobacco budworm); settings: for LC50: Heliothis virescens, po; for EC50 (concentration causing 50% growth inhibition): Table 1, first-instar Heliothis virescens larvae, parentheses = 95% confidence limits; for EC50 (concentration causing 50% growth inhibition) / EC50: artificial diet; for insecticidal activity (in words): Heliothis virescens feeding; for EC50: Table 5, larval growth reduced to 50% of control, first instar Heliothis virescens, 95% confidence limits
Source text: The results of the growth inhibitory and lethal activities of azadirachtin and these 8 derivatives when fed in an artificial diet to Heliothis virescens larvae are shown in Table 1. Similar to the results of Morgan, E. D., in "Natural pesticides from the Neem tree (Azadirachta indica A. Juss), Schmutterer, H., et al., Eds., Proc. First International Neem Conference (Rottach-Egern, 1980), German Agency for Technical Corporation,Eschborn, Germany, 1982, pps. 43-52 (hereinafter "Morgan"), neither deacetylation nor hydrogenation of the carbon-carbon double bond of the dihydrofuran ring moiety of azadirachtin had any significant effect on activity of the compound against H. virescens.
Mortality and growth inhibition in first-instar Heliothis
virescens larvae fed azadirachtin and eight derivatives in an
artificial diet (I. Kubo and J. A. Klocke, In: Plant Resistance to
Insects (P. A. Helin, Ed.), ACS Symposium Series 208, American Chemical
Society, Washington, D.C. (1983), pp. 329-346.).^a
^b LC50 values are the concentrations (ppm) causing 50%
^c EC50 values are the concentrations (ppm) causing 50% growth
^d Numbers in parentheses are the 95% confidence limits determined
using the methods of Litchfield and Wilcoxon, J. Pharmacol. Exp. Ther.
An artificial diet feeding bioassay with neonate larvae of tobacco budworm (Heliothis virescens) and fall armyworm (Spodoptera frugiperda) was used as previously described (Kubo and Klocke, 1983) to detect insecticidal activities in the plant extracts to monitor fractionation, and to determine the potency of the isolated constituents and derivatives. Potency was determined either as the effective concentration (EC50) of added material that is necessary to reduce larval growth to 50% of the control values or as the lethal concentration (LC50) of added material that is necessary to kill 50% of the treated larvae. EC50 and LC50 values were determined from log probit paper and analyzed statistically by the method of Litchfield and Wilcoxon, supra.

Heliothis virescens [2] = assay: Oral injection of fifth-instar larvae, pupal and adult development (non-irradiated compounds); type: in vivo
Description: (§1) Individual larvae were injected per os on the first day of the fifth instar with 1.0 μg of either irradiated or non-irradiated compounds dissolved in 1.0 μl of 75% aqueous ethanol.
Table 2: Successful and unsuccessful pupal and adult development of
fifthinstar Heliothis Virescens larvae injected orally with 1.0 microgram
of either azadirachtin, 3deacetylazadirachtin, 22,23dihydroazadirachtin,
or 2',3',22,23tetrahydroazadirachtin.

Heliothis virescens [3] = assay: Relative activity of UV-irradiated compounds in inhibiting pupal development of fifth-instar larvae; type: in vivo; settings: for Relative activity, inhibition of pupal development: relative to non-irradiated counterpart
Description: (§2) Azadirachtin, 3-deacetylazadirachtin, 22,23-dihydroazadirachtin, and 2',3',22,23-tetrahydroazadirachtin (1.0 mg/ml absolute ethanol) were placed individually in capped quartz NMR tubes (5×180 mm) and were irradiated with two UV germicidal lights (GE, G30T8, 200-280 nm, 30W) 1.8 m from the source at room temperature for up to 400 h. The controls were identical samples protected from exposure to UV radiation by wrapping with aluminum foil. At selected time intervals, aliquots from both the controls (non-irradiated) and irradiated samples were removed for high-performance liquid chromatography (HPLC) analysis and bioassay (vide infra).
as §1
Table 3: Relative activity of azadirachtin, 3deacetylaza-dirachtin,
22,23dihydroazadirachtin, and 2',3',22,23tetrahydroazadirachtin, all of
which had been exposed for 15, 30, 90, 200, and 400 hours to UV radiation
inhibiting the pupal development of fifthinstar Heliothis virescens
(§3) larvae. Relative activity is defined as the percentage of larvae injected

Heliothis virescens [4] = assay: Relative activity of UV-irradiated compounds in inhibiting adult development of fifth-instar larvae; type: in vivo; settings: for Relative activity, inhibition of adult development: relative to non-irradiated counterpart
Description: as §2, §1
Table 4: Relative activity of azadirachtin, 3deacetylaza-dirachtin,
22,23dihydroazadirachtin, 2',3',22,23tetrahydroaza-dirachtin, all of whic
had been exposed for 15, 30, 90, 200, and 400 hours to UV radiation, in
inhibiting the adult development of fifthinstar Heliothis virescens
as §3
relative to the percentage injected with its nonirradiated counterpart

[5] = UV stability in ethanol by reversed phase HPLC; type: physicochemical
Description: Stability of Azadirachtin derivatives was determined as follows:
as §2
Analytical reversed phase HPLC was performed on a phenyl (5μm) column run isocratically with acetonitrile-water (3:7) (Yamasaki et al.) Peaks were detected at 214 nm. The irradiated samples were compared with their corresponding non-UV-irradiated controls by measuring the height of the peak eluting at the appropriate Rt for each irradiated compound relative to each one's non-irradiated control. Results are expressed as the percent of the initial sample concentration remaining relative to the control. Each time point was done in at least triplicate fashion.

[6] = 1.0 microgram injected orally, fifth-instar, non-irradiated
[7] = 1.0 microgram injected orally, % of larvae

Structure (SMILES): C/C=C(\C)C(=O)OC1CC(OC(C)=O)C2(C(=O)OC)COC3C2C12COC(OC(=O)OC)(C(=O)OC)C2C(C)(C12OC1(C)C1CC2OC2OCCC21OC(=O)OC)C3O (stereo not shown) [11,20-O, O-dicarbomethoxy-22,23-dihydroazadirachtin]
- LC50 (Heliothis virescens [1]; read-out: LC50 (concentration causing 50% mortality)): 90 µg/mL (≈ 107 µM)
- EC50 (concentration causing 50% growth inhibition) (Heliothis virescens [1]): 29.0 (20.3-41.5) ppm

Structure (SMILES): CC(=O)OCC12C(OC(=O)/C=C/c3ccccc3)CC(OC(C)=O)C3(C)COC(C31)C(O)C(C)(C13OC1(C)C1CC3OC3OC=CC31O)C2C(C)=O (stereo not shown) [Compound 13, 1-cinnamoyl-3,19-0,0-diacetylmelianolone]
- insecticidal activity (in words) (Heliothis virescens [1]): approximately half that of azadirachtin
- LC50 (Heliothis virescens [1]): 1.5 µg/mL (≈ 2.08 µM)
- EC50 (Heliothis virescens [1]): 0.12 ppm

Structure (SMILES): COC(=O)C1(O)OCC23C(O)CC(OC(C)=O)C4(C(=O)OC)COC(C42)C(O)C(C)(C24OC2(C)C2CC4OC4OCCC42O)C13 (stereo not shown) [1-detigloyl-22,23-dihydroazadirachtin]
- EC50 (concentration causing 50% growth inhibition) (Heliothis virescens [1]): 0.59 (0.30-1.14) ppm

- kinetics of UV degradation (in words) [5]: first-order reaction
- UV lability (in words) ([5]; UV irradiation, HPLC): UV-labile
Structure (SMILES): C/C=C(\C)C(=O)OC1CC(O)C2(C(=O)OC)COC3C2C12COC(O)(C(=O)OC)C2C(C)(C12OC1(C)C1CC2OC2OC=CC21O)C3O (stereo not shown) [3-deacetylazadirachtin]
- EC50 (concentration causing 50% growth inhibition) (Heliothis virescens [1]): 0.09 (0.05-0.17) ppm
- Number Adults (Heliothis virescens [2]; [6]): 10 Number
- Number Adults Deformed (Heliothis virescens [2]; [6]): 10 Number
- Number Pupae (Heliothis virescens [2]; [6]): 56 Number
- Unsuccessful Larvae-Pupae (number) (Heliothis virescens [2]; [6]): 13 Number
- Unsuccessful Pupae-Adult (number) (Heliothis virescens [2]; [6]): 4 Number
- Adults (%) (Heliothis virescens [2]; [7]): 5.9%
- Adults Deformed (%) (Heliothis virescens [2]; [7]): 5.9%
- Pupae (%) (Heliothis virescens [2]; [7]): 33.1%
- Unsuccessful Larvae-Pupae (%) (Heliothis virescens [2]; [7]): 7.7%
- Unsuccessful Pupae-Adult (%) (Heliothis virescens [2]; [7]): 2.4%
- inhibition of pupation (in words) (Heliothis virescens [2]; non-irradiated, 1.0 μg per os): less effective
- Relative activity, inhibition of pupal development (Heliothis virescens [3]; 15 h UV exposure): 115.2%
- Relative activity, inhibition of pupal development (Heliothis virescens [3]; 30 h UV exposure): 135.0%
- activity retained after 90 h of exposure to UV radiation (in words) (Heliothis virescens [3]; 90 h UV): retained full activity
- Relative activity, inhibition of pupal development (Heliothis virescens [3]; 90 h UV exposure): 139.5%
- ability to inhibit pupation after UV (in words) (Heliothis virescens [3]; 200 h UV): did decline
- Relative activity, inhibition of pupal development (Heliothis virescens [3]; 200 h UV exposure): 86.8%
- ability to inhibit pupation after UV (in words) (Heliothis virescens [3]; 400 h UV): even greater decline
- activity retained after 400 h of exposure to UV radiation (Heliothis virescens [3]; 400 h UV): approximately 50%
- Relative activity, inhibition of pupal development (Heliothis virescens [3]; 400 h UV exposure): 41.0%
- ability to inhibit pupation after UV (in words) (Heliothis virescens [3]; up to 90 h UV): not appreciably reduced
- Relative activity, inhibition of adult development (Heliothis virescens [4]; 15 h UV exposure): 103.2%
- Relative activity, inhibition of adult development (Heliothis virescens [4]; 30 h UV exposure): 106.3%
- Relative activity, inhibition of adult development (Heliothis virescens [4]; 90 h UV exposure): 106.3%
- ability to inhibit larvae from reaching the adult stage after UV (in words) (Heliothis virescens [4]; 200 h UV): remained substantially unchanged until 400 h of irradiation
- Relative activity, inhibition of adult development (Heliothis virescens [4]; 200 h UV exposure): 96.0%
- Relative activity, inhibition of adult development (Heliothis virescens [4]; 400 h UV exposure): 72.3%
- degradation following 400 h of exposure to UV radiation (in words) [5]: none of the three compounds remained in their original state

Structure (SMILES): CC(=O)OC1CC(OC(=O)/C=C/c2ccccc2)C2(CO)C3C(OCC13C)C(O)C(C)(C13OC1(C)C1CC3OC3OC=CC31O)C2C(C)=O (stereo not shown) [Compound 12, 1-cinnamoyl-3-0-acetylmelianolone]
- insecticidal activity (in words) (Heliothis virescens [1]): approximately half that of azadirachtin
- LC50 (Heliothis virescens [1]): 1.5 µg/mL (≈ 2.2 µM)
- EC50 (Heliothis virescens [1]): 0.15 ppm

— US5047242A, “Azadirachtin derivative insecticides” (Native Plant Institute ("NPI"), priority 1987, dated 1991)
